One data set concerns the target T1, CDC25B (Homo sapiens, UniProt P30305).
T1 sequence (P30305 1-580): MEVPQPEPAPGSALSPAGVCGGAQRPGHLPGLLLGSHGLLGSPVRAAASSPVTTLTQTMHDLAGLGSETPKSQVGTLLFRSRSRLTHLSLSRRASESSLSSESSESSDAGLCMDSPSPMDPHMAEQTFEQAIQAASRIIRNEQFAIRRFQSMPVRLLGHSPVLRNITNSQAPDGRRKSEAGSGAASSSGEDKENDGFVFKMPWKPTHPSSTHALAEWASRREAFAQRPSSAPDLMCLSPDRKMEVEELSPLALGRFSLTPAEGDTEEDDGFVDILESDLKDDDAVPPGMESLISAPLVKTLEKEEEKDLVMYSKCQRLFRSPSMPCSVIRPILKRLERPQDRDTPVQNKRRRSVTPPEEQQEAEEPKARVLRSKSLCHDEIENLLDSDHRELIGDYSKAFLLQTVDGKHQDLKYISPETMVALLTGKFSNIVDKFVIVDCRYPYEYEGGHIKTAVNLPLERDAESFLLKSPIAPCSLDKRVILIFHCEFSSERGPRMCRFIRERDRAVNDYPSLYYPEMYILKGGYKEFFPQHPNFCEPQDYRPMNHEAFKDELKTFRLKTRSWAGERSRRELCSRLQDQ
In words: In vitro inhibition of CDC25B using the fluorogenic substrate 3-OMFP (CDC25B WT, Ex. C5). In kind it is biochemical. The protocol:
In Vitro Inhibition of CDC25B using the Fluorogenic Substrate 3-OMFP
CDC25B phosphatase activity is assessed using the fluorogenic substrate 3-O-methyl-flurorescein-phosphate (3-OMFP). The phosphatase-reaction is performed for 1 hour at room temperature in a black microtiter plate in a volume of 50 μl. The reaction mixture contains 4 μg/mlCDC25B, 15 μM (3-OMFP), 15 mM Tris, 50 mM NaCl, 1 mM DTT, 1 mM Na2EDTA at pH 8.0 and 0.1% DMSO solution at 10^−5 M and the hits are tested in the same conditions in a full dose/response from 10^−5, 3.10^−6, 10^−6 and 3.10^−7 M. The enzymatic activity is determined by measuring the fluorescent signal at 485 nm (ex.) and 538 (em.).

Data set [1] concerns the target T2, AKT3 (Homo sapiens, UniProt Q9Y243). In words: In vitro inhibition of AKT3 using a filter assay (AKT3 pep., Ex. C3). Format: biochemical. As for the experimental part: In Vitro Inhibition of AKT3 using a Filter Assay
In the present AKT3 filter assay, a kinase substrate consisting of a fragment of histone H2B, is incubated with the aforementioned protein in the presence of (^33P) radiolabeled ATP. The (^33P)phosporylated substrate binds to a phosphocellulose cation exchange filter, that can easily be removed from the incubation mixture and counted using a microplate scintillation counter.
AKT3 filter assays were performed at 25° C. for 3 hrs in the presence of 25 mM Hepes, pH 7.0, containing 15 mM MgCl2, 1 mM DTT Each assay was performed in a 100 μl reaction volume containing 111 nM AKT3 (diluted in 25 mM Hepes, pH 7.0, containing 15 mM MgCl2, 1 mM DTT) and the 2.5 μM Histone H2B and 2 nM ATP-P^32. The reaction was terminated by addition of 100 μl 75 mM H3PO4, 90 μl of the assay mixture was filtered through Phosphocellulose cation exchange paper. After five times washing with […] H3PO4, the filterpaper was counting in a microtiterplate scintillation counter.

The target of data set [2] is T2, AKT3. Kind of data set: Cellular inhibition of AKT3 using an ELISA (AKT cel, Ex. C6). Format: cell-based. Also noted: endogenous in cells; host or cells: MDA-MB 231. As for the experimental part: Cellular Inhibition of AKT3 using an ELISA
The human breast adenocarcinoma cell line (MDA-MB 231) was used in an phosphospecific antibody cell ELISA (PACE) to assess the inhibitory effect of the compounds on AKT3 mediated phosphorylation of mitogen-activated protein kinase (MAPK). In the experiments the MDA-MB 231 cells were serum starved for 24 hours (5% CO2; 37° C.). Subsequently, the cells are incubated at room temperature for 2 hours with 20 μM (in serum free medium) of the phosphatidylinositol 3-kinase inhibitor Ly294002 (Alexis, San Diego, Calif.) prior to the incubation for 30 minutes with the compounds at a final concentration ranging from 1 nM to 3 μM. After fixation (with 4.5% formaldehyde) for 20 minutes and washing with PBS (0.1M) the cells were successively incubated with for 5 minutes with 0.1% Triton X-100 in PBS, for 20 minutes with 0.6% H2O2 and 1 hour with a 2% BSA solution as blocking buffer. […] The OD (490–655 nm) reflected the amount of phosphorylated MAPK and the pIC50 of the compounds was based on their effect with respect to blanco (0.1% DMSO) or an internal reference compound treatment.

The subject of a further data set is A2780 cell. In words: Cytotox/survival of A2780 cell after 3 days. Format: cell-based. The conditions noted are these: Homo sapiens, read-out: Cytotox/survival of A2780 cell after 3 days - pIC50 values (converted). As for the experimental part:
In an alternative assay, the growth inhibitory effect of the compounds was tested on the ovarian carcinoma cell line A2780 using art known cytotoxicity assays such as LIVE/DEAD (Molecular Probes) or MTT.

The next data set has as its target cdk4 (Homo sapiens, UniProt P11802). In words: In vitro inhibition of cdk4 using a scintillant proximity assay (CDK4 SPA, Ex. C1). In kind it is biochemical. As for the experimental part: In Vitro Inhibition of cdk4 using a Scintillant Proximity Assay
The scintillant proximity assay (SPA) is in general described in U.S. Pat. No. 4,568,649 (Amersham Pharmacia Biotech). In the present cdk4 SPA kinase reaction assay, a kinase substrate consisting of a fragment of the restinoblastoma protein (pRb) tagged with […] (GST), is incubated with the aforementioned protein in the presence of (^33P) radiolabeled ATP. (^33P) phosporylation of the substrate is subsequently measured as light energy emitted using glutathione-coated SPA beads (Amersham Pharmacia Biotech) by trapping and quantifying the binding of the GST tagged and radiolabeled restinoblastoma protein.
The CDK4 SPA kinase reaction is performed at room temperature for 30 minutes in a 96-well microtiter plate. For each of the tested compounds a full dose response —10^−5M to 3.10^−9M—has been performed. Flavopiridol was used as reference compound. The 100 μl reaction volume contains 50 mM Hepes, 10 mM NaF, 10 mM MgCl2, 1 mM Na3VO4 pH 7.5, 1.5 μg CDK4-cell lysate/well, 0.2 μM unlabeled ATP, 1.7 μg/well GST-pRb, 1.7 nM AT^33P and 1 μl of a DMSO solution. The reaction is stopped by diluting the reaction mixture ½ with 0.1 mM Na2EDTA, 0.1 mM non-labeled ATP, 0.05% Triton-X-100 and 10 mg/ml glutathion coated beads in PBS. The microtiterplates are centrifuges at 900 rpm for 10 minutes and the amount of phosphorylated (^33P) pRb is determined by counting (1 min/well) in a microtiterplate scintillation counter.

Setting [3] is: 3-OMFP substrate, 1 hour room temperature, read-out: CDC25B WT (Ex. C5): pIC50 values (converted).
[4] abbreviates: histone H2B substrate, filter assay, 25° C. 3 hrs, read-out: AKT3 pep. (Ex. C3): pIC50 values (converted).
The mark [5] stands for this setting: MDA-MB 231 cells, phosphorylated MAPK ELISA, 30 minutes with compound, read-out: AKT cel (Ex. C6): pIC50 values (converted).
Setting [6] is: 72 h, A2780 ovarian carcinoma cell line, 3 days.
The mark [7] stands for this setting: GST-pRb substrate, 33P-ATP, room temperature 30 minutes, read-out: CDK4 SPA (Ex. C1): pIC50 values (converted).

Read-outs that look alike come from different tables or passages of the source.

T2 sequence (Q9Y243 whole entry, the tested form may be a part): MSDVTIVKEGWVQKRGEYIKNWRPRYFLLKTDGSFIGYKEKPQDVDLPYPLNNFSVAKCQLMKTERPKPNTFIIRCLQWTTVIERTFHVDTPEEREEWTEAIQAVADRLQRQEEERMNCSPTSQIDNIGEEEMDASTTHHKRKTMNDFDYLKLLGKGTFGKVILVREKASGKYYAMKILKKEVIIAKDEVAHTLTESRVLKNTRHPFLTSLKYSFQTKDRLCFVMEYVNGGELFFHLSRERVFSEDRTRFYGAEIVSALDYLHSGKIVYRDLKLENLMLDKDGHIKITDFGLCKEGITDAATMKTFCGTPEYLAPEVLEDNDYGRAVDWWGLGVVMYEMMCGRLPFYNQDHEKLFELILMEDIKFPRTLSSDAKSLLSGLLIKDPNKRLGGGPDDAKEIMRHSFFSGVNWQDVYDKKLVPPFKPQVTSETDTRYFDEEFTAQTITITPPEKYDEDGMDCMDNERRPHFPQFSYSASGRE
Sequence of cdk4 (P11802 whole entry, the tested form may be a part): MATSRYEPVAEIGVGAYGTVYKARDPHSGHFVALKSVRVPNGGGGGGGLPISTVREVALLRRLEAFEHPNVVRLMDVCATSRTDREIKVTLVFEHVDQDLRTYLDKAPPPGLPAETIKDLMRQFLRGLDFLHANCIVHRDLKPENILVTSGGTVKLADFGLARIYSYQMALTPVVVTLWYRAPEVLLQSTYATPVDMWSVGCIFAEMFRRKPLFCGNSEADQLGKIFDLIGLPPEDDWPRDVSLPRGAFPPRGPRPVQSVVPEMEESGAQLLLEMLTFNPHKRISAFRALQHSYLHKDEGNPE
Sequence of cdk4 (P24385 whole entry partner, the tested form may be a part): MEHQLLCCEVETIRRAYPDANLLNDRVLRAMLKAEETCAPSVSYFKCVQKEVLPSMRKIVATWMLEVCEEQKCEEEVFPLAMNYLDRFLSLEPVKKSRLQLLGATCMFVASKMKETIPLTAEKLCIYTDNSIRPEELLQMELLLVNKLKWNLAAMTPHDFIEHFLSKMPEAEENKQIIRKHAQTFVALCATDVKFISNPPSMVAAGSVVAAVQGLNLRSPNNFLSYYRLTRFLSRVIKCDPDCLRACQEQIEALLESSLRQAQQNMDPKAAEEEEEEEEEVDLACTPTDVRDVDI

Turning to `Cn1c(=O)nc2n(C3CCCC3)nc(-c3ccc(-c4ccc(OCCN5CCOCC5)cc4)o3)nc-2c1=O` [Compound 117], the melting point (usually the temperature, or range, at which the solid turns liquid) stood at 173 °C. Besides, at CDC25B, the IC50 was 18.9 nM. The compound further gave an IC50 at AKT3 [1] of 49.4 nM. On AKT3 [2], this compound had an IC50 of 813 nM. Besides, the IC50 in the data set with A2780 cell (A2780, 72 h) is 178 nM. For the same compound, at cdk4, the IC50 is 286 nM.

`CC(C)n1nc(-c2ccc(-c3ccc(CN(C)CCO)cc3)o2)nc2c(=O)n(C)c(=O)nc1-2` [Compound 87] yielded a melting point of 229 °C. The IC50 on CDC25B (setting [3]) is 24.3 nM. Further, the IC50 on AKT3 [1] (setting [4]) was 72.9 nM. Also, the IC50 at AKT3 [2] (setting [5]) was 35.2 nM. In the data set on A2780 cell (setting [6]), the IC50 is 61.4 nM. Besides, the IC50 on cdk4 (setting [7]) is 80.7 nM.

For `Cn1c(=O)nc2n(C3CCCC3)nc(-c3ccc(-c4ccc(CN(CCO)CCO)cc4)o3)nc-2c1=O` [Compound 134], the melting point amounted to 242 °C. Moreover, the IC50 on CDC25B (setting [3]) is 12.9 nM. For the same compound, at AKT3 [1] (setting [4]), the IC50 is 59.8 nM. Also, at AKT3 [2] (setting [5]), the IC50 was 39.2 nM. The IC50 in the data set with A2780 cell (setting [6]) was 52.7 nM. The IC50 on cdk4 (setting [7]) was 111 nM.

As to `Cn1c(=O)nc2n(C3CCCC3)nc(-c3ccc(-c4ccc(CNC(CO)(CO)CO)cc4)o3)nc-2c1=O` [Compound 126], the melting point was found to be 241 °C. The IC50 on CDC25B (setting [3]) is 93.8 nM. Also, the IC50 on AKT3 [1] (setting [4]) was 80.2 nM. The IC50 at AKT3 [2] (setting [5]) is 272 nM. The IC50 with A2780 cell (setting [6]) is 1110 nM. Moreover, the IC50 at cdk4 (setting [7]) was 78.3 nM.

`Cn1c(=O)nc2n(C3CCCC3)nc(-c3ccc(-c4ccc(CN5CCN(CCOCCO)CC5)cc4)o3)nc-2c1=O` [Compound 121] registered a melting point of more than 250 °C. Further, the IC50 at CDC25B (setting [3]) was 12 nM. The IC50 on AKT3 [1] (setting [4]) is 57.3 nM. For the same compound, at AKT3 [2] (setting [5]), the IC50 was 406 nM. The IC50 in the data set with A2780 cell (setting [6]) was 137 nM. The IC50 on cdk4 (setting [7]) was 161 nM.

Compound `Cn1c(=O)nc2n(C3CCCC3)nc(-c3ccc(-c4ccc(CN5CCN(S(N)(=O)=O)CC5)cc4)o3)nc-2c1=O` [Compound 112] came in with a melting point of more than 250 °C. On CDC25B (setting [3]), the IC50 is 19.8 nM. Further, on AKT3 [1] (setting [4]), the IC50 is 63.7 nM. At AKT3 [2] (setting [5]), the IC50 is 202 nM. In the data set with A2780 cell (setting [6]), the IC50 is 142 nM. At cdk4 (setting [7]), the IC50 is 117 nM.

For the compound `Cn1c(=O)nc2n(C3CCCC3)nc(-c3ccc(-c4ccc(CNCc5cccnc5)cc4)o3)nc-2c1=O` [Compound 122], the melting point worked out at 205 °C. Besides, the IC50 on CDC25B (setting [3]) was 14 nM. In addition, at AKT3 [1] (setting [4]), the IC50 is 30.9 nM. In addition, the IC50 on AKT3 [2] (setting [5]) was 123 nM. Moreover, the IC50 in the data set with A2780 cell (setting [6]) was 70.5 nM. For the same compound, the IC50 at cdk4 (setting [7]) is 91 nM.

In turn, `Cn1c(=O)nc2n(C3CCCC3)nc(-c3ccc(-c4ccc(CO)cc4)o3)nc-2c1=O` [Compound 31] gave a melting point of 182 °C. The IC50 on CDC25B (setting [3]) is 13.8 nM. Further, the IC50 at AKT3 [1] (setting [4]) was 44.3 nM. The IC50 at AKT3 [2] (setting [5]) was 277 nM. For the same compound, the IC50 with A2780 cell (setting [6]) was 74 nM. The IC50 at cdk4 (setting [7]) was 137 nM.

In turn, `Cn1c(=O)nc2n(C3CCCC3)nc(-c3ccc(-c4ccc(CN5CCCC5)cc4)o3)nc-2c1=O` [Compound 131] returned a melting point of 218 °C. Moreover, the IC50 on CDC25B (setting [3]) is 18.6 nM. For the same compound, at AKT3 [1] (setting [4]), the IC50 is 91.4 nM. Further, on AKT3 [2] (setting [5]), the IC50 was 71.8 nM. Besides, in the data set on A2780 cell (setting [6]), the IC50 is 61.7 nM. Moreover, the IC50 at cdk4 (setting [7]) was 51.9 nM.

As to `CN1CCN(C(=O)COc2ccc(-c3ccc(-c4nc5c(=O)n(C)c(=O)nc-5n(C5CCCC5)n4)o3)cc2)CC1` [Compound 119], the melting point was 252 °C. Also, the IC50 at CDC25B (setting [3]) is 17.6 nM. On AKT3 [1] (setting [4]), the IC50 was 54 nM. Moreover, the IC50 at AKT3 [2] (setting [5]) was 470 nM. Also, the IC50 in the data set on A2780 cell (setting [6]) is 48.1 nM. Moreover, the IC50 on cdk4 (setting [7]) was 129 nM.

Compound `COCCN1CCN(Cc2ccc(-c3ccc(-c4nc5c(=O)n(C)c(=O)nc-5n(C5CCCC5)n4)o3)cc2)CC1` [Compound 133] returned a melting point of 186 °C. Also, the IC50 on CDC25B (setting [3]) was 11.6 nM. In addition, the IC50 at AKT3 [1] (setting [4]) is 61 nM. Also, on AKT3 [2] (setting [5]), the IC50 is 67.8 nM. Also, the IC50 with A2780 cell (setting [6]) was 119 nM. Further, on cdk4 (setting [7]), the IC50 was 112 nM.

Take `COC1CCN(Cc2ccc(-c3ccc(-c4nc5c(=O)n(C)c(=O)nc-5n(C5CCCC5)n4)o3)cc2)CC1` [Compound 132]: the melting point amounted to 220 °C. Also, the IC50 at CDC25B (setting [3]) was 20.2 nM. Moreover, the IC50 at AKT3 [1] (setting [4]) is 47 nM. For the same compound, the IC50 on AKT3 [2] (setting [5]) was 58.3 nM. The IC50 in the data set on A2780 cell (setting [6]) is 87.7 nM. Besides, the IC50 on cdk4 (setting [7]) was 78.5 nM.

(Values after US7241763B2, “3-furanyl analogs of toxoflavine as kinase inhibitors” (priority 2002, dated 2007).)
